Test results reported in ChEMBL document CHEMBL4715821, “Discovery of 4-ethoxy-7H-pyrrolo[2,3-d]pyrimidin-2-amines as potent, selective and orally bioavailable LRRK2 inhibitors” (Bioorg Med Chem Lett, 2018).
≈ marks a conversion by molar mass, not a printed value.

Key:
[1] = molecular target: Dual specificity tyrosine-phosphorylation-regulated kinase 3 (Homo sapiens) (UniProt O43781); assay: Inhibition of DYRK3 (unknown origin) assessed as residual activity at 1 uM by Kinomescan method relative to control
[2] = Solubility of the compound in FaSSIF measured after 4 hrs; type: physicochemical
[3] = Unbound fraction in Han-Wistar rat brain at 10 mg/kg, po; type: ADME, organism-based
[4] = In vivo inhibition of LRRK2 in Han-Wistar rat assessed as reduction in Ser935 phosphorylation in brain at 10 mg/kg, po by Western blot analysis; type: functional; parameters: scale not given: the % may be the effect or the level left
[5] = molecular target: Mast/stem cell growth factor receptor Kit (Homo sapiens) (UniProt P10721); assay: Inhibition of c-kit (unknown origin) assessed as residual activity at 1 uM relative to control
[6] = molecular target: Cyclin-dependent kinase 5/CDK5 activator 1 (Homo sapiens) (UniProt Q00535+Q15078); assay: Inhibition of wild-type human full length CDK5 (M1 to P292 residues)/p35 expressed in bacterial expression system assessed as residual activity at 1 uM by Kinomescan method relative to control
[7] = molecular target: CDK6/cyclin D3 (Homo sapiens) (UniProt P30281+Q00534); assay: Inhibition of wild-type human full length CDK6 (M1 to A326 residues)/cyclin D3 expressed in mammalian expression system assessed as residual activity at 1 uM by Kinomescan method relative to control
[8] = molecular target: Casein kinase I isoform alpha-like (Homo sapiens) (UniProt Q8N752); assay: Inhibition of CK1a1L (unknown origin) assessed as residual activity at 1 uM by Kinomescan method relative to control
[9] = molecular target: Dual specificity tyrosine-phosphorylation-regulated kinase 4 (Homo sapiens) (UniProt Q9NR20); assay: Inhibition of DYRK4 (unknown origin) assessed as residual activity at 1 uM by Kinomescan method relative to control
[10] = molecular target: Epidermal growth factor receptor (Homo sapiens) (UniProt P00533); assay: Inhibition of wild-type human partial length EGFR (R669 to V1011 residues) expressed in bacterial expression system assessed as residual activity at 1 uM by Kinomescan method relative to control
[11] = molecular target: Glycogen synthase kinase-3 beta (Homo sapiens) (UniProt P49841); assay: Inhibition of wild-type human full length GSK3B (M1 to T433 residues) expressed in mammalian expression system assessed as residual activity at 1 uM by Kinomescan method relative to control
[12] = molecular target: Homeodomain-interacting protein kinase 1 (Homo sapiens) (UniProt Q86Z02); assay: Inhibition of wild-type human partial length HIPK1 (M146 to I555 residues) expressed in mammalian expression system assessed as residual activity at 1 uM by Kinomescan method relative to control
[13] = molecular target: Tyrosine-protein kinase JAK2 (Homo sapiens) (UniProt O60674); assay: Inhibition of wild-type human partial length JAK2 JH1 catalytic domain (A829 to G1132 residues) expressed in mammalian expression system assessed as residual activity at 1 uM by Kinomescan method relative to control
[14] = molecular target: Mitogen-activated protein kinase 10 (Homo sapiens) (UniProt P53779); assay: Inhibition of wild-type human partial length JNK3 (V28 to Q422 residues) expressed in mammalian expression system assessed as residual activity at 1 uM by Kinomescan method relative to control
[15] = molecular target: Myosin-IIIb (Homo sapiens) (UniProt Q8WXR4); assay: Inhibition of wild-type human partial length MYO3B (M1 to D357 residues) expressed in bacterial expression system assessed as residual activity at 1 uM by Kinomescan method relative to control
[16] = molecular target: Serine/threonine-protein kinase Nek3 (Homo sapiens) (UniProt P51956); assay: Inhibition of wild-type human full length NEK3 (M1 to R506 residues) expressed in mammalian expression system assessed as residual activity at 1 uM by Kinomescan method relative to control
[17] = molecular target: Serine/threonine-protein kinase Nek9 (Homo sapiens) (UniProt Q8TD19); assay: Inhibition of wild-type human partial length NEK9 (P32 to R328 residues) expressed in bacterial expression system assessed as residual activity at 1 uM by Kinomescan method relative to control
[18] = molecular target: Ribosomal protein S6 kinase beta-2 (Homo sapiens) (UniProt Q9UBS0); assay: Inhibition of RPS6KB2 (unknown origin) assessed as residual activity at 1 uM by Kinomescan method relative to control
[19] = molecular target: Lymphokine-activated killer T-cell-originated protein kinase (Homo sapiens) (UniProt Q96KB5); assay: Inhibition of PBK (unknown origin) assessed as residual activity at 1 uM by Kinomescan method relative to control
[20] = molecular target: Serine/threonine-protein kinase pim-1 (Homo sapiens) (UniProt P11309); assay: Inhibition of wild-type human partial length PIM1 (A15 to K313 residues) expressed in bacterial expression system assessed as residual activity at 1 uM by Kinomescan method relative to control
[21] = molecular target: Serine/threonine-protein kinase pim-2 (Homo sapiens) (UniProt Q9P1W9); assay: Inhibition of wild-type human partial length PIM2 (M1 to E291 residues) expressed in bacterial expression system assessed as residual activity at 1 uM by Kinomescan method relative to control
[22] = molecular target: Serine/threonine-protein kinase pim-3 (Homo sapiens) (UniProt Q86V86); assay: Inhibition of wild-type human partial length PIM3 (G16 to A317 residues) expressed in bacterial expression system assessed as residual activity at 1 uM by Kinomescan method relative to control
[23] = molecular target: Receptor-interacting serine/threonine-protein kinase 2 (Homo sapiens) (UniProt O43353); assay: Inhibition of wild-type human partial length RIPK2 (M1 to K310 residues) expressed in bacterial expression system assessed as residual activity at 1 uM by Kinomescan method relative to control
[24] = molecular target: Ribosomal protein S6 kinase alpha-2 (Homo sapiens) (UniProt Q15349); assay: Inhibition of human RSK3 expressed in bacterial expression system assessed as residual activity at 1 uM by Kinomescan method relative to control
[25] = molecular target: CDK1/Cyclin E (Homo sapiens) (UniProt P06493+P24864); assay: Inhibition of CDK1/Cyclin E (unknown origin) assessed as residual activity at 1 uM by Kinomescan method relative to control; type: protein-complex assay
[26] = molecular target: Epithelial discoidin domain-containing receptor 1 (Homo sapiens) (UniProt Q08345); assay: Inhibition of wild-type human partial length DDR1 (R565 to V876 residues) expressed in bacterial expression system assessed as residual activity at 1 uM by Kinomescan method relative to control
[27] = molecular target: Rhodopsin kinase GRK1 (Homo sapiens) (UniProt Q15835); assay: Inhibition of wild-type human full length GRK1 (M1 to S563 residues) expressed in mammalian expression system assessed as residual activity at 1 uM by Kinomescan method relative to control
[28] = molecular target: Dual specificity mitogen-activated protein kinase kinase 4 (Homo sapiens) (UniProt P45985); assay: Inhibition of MKK4 (unknown origin) assessed as residual activity at 1 uM by Kinomescan method relative to control
[29] = molecular target: Tau-tubulin kinase 2 (Homo sapiens) (UniProt Q6IQ55); assay: Inhibition of TTBK2 (unknown origin) assessed as residual activity at 1 uM by Kinomescan method relative to control

CCOc1nc(Nc2ccc(C(=O)N3CCOCC3)cc2OC)nc2[nH]ccc12
Activity [1]: 96.4%
solubility at 4 h [2]: 127 µg/mL (≈ 320 µM)
fraction unbound [3]: 0.01
Activity [4]: 20%
Activity [5]: 98.6%
Activity [6]: 93.1%
Activity [7]: 96.5%
Activity [8]: 95%
Activity [9]: 94.6%
Activity [10]: 99.6%
Activity [11]: 95.9%
Activity [12]: 108%
Activity [13]: 96.3%
Activity [14]: 100%
Activity [15]: 48.9%
Activity [16]: 104%
Activity [17]: 100%
Activity [18]: 98.9%
Activity [19]: 101%
Activity [20]: 99.7%
Activity [21]: 94.7%
Activity [22]: 99.9%
Activity [23]: 91.7%
Activity [24]: 80.3%
Activity [25]: 96.4%
Activity [26]: 102%
Activity [27]: 95.2%
Activity [28]: 107%
Activity [29]: 104%
